Consider 18 compounds from patent US20260028354A1, “TETRAHYDRONAPHTHALENE DERIVATIVES AS ESTROGEN RECEPTOR DEGRADERS” (REGENT OF THE UNIVERSITY OF MICHIGAN, priority 2022, published 2026).

Structures are written as SMILES.

This experiment can be described thus: Western blot analysis for "B" compounds. The experiment is classed as cell-based. Particulars: read-out: Traditional Western Degradation Potency (DC50). The gist of the method:
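Compound-treated cells lysed in RIPA buffer with protease inhibitors; equal protein (BCA) run on 10% SDS-PAGE, transferred to PVDF and probed with target antibodies. Band intensities quantified by densitometry and normalized to GAPDH.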
For orientation: A western blot detects proteins with antibodies after separation by electrophoresis.

For the compound `O=C1CCC(N2C(=O)c3cc4c(cc3C2=O)CN(C(=O)CN2CCC3(CC2)CCN(c2ccc([C@@H]5c6ccc(O)cc6CC[C@@H]5c5ccccc5)c(F)c2)C3)C4)C(=O)N1` (mixture of isomers) [Compound B32, 2-(2,6-dioxopiperidin-3-yl)-6-(2-(2-(3-fluoro-4-((1S,2S)-6-hydroxy-2-phenyl-1,2,3,4-tetrahydronaphthalen-1-yl)phenyl)-2,8-diazaspiro[4.5]decan-8-yl)acetyl)-6,7-dihydropyrrolo[3,4-f]isoindole-1,3(2H,5H)-dione], the half-maximal degradation concentration (DC50) was above 100 nM.
In the case of `O=C1CCC(N2C(=O)c3cc4c(cc3C2=O)CN(C(=O)CN2CCC[C@H](Oc3ccc([C@@H]5c6ccc(O)cc6CC[C@@H]5c5ccc(F)cc5)cc3)C2)C4)C(=O)N1` (stereo partly drawn) [Compound B38, 2-(2,6-dioxopiperidin-3-yl)-6-(2-((S)-3-(4-((1R,2S)-2-(4-fluorophenyl)-6-hydroxy-1,2,3,4-tetrahydronaphthalen-1-yl)phenoxy)piperidin-1-yl)acetyl)-6,7-dihydropyrrolo[3,4-f]isoindole-1,3(2H,5H)-dione], the DC50 is above 100 nM.
As for `O=C1CCC(N2C(=O)c3cc4c(cc3C2=O)CN([C@H]2CC[C@@H](NC3CN(c5ccc([C@@H]6c7ccc(O)cc7CC[C@@H]6c6ccccc6)cc5)C3)CC2)C4)C(=O)N1` (stereo partly drawn) [Compound B102, 2-(2,6-dioxopiperidin-3-yl)-6-((1S,4s)-4-((1-(4-((1R,2S)-6-hydroxy-2-phenyl-1,2,3,4-tetrahydronaphthalen-1-yl)phenyl)azetidin-3-yl)amino)cyclohexyl)-6,7-dihydropyrrolo[3,4-f]isoindole-1,3(2H,5H)-dione], the figure is above 100 nM; as for `O=C1CCC(N2C(=O)c3cc4c(cc3C2=O)CN(CC(=O)N2CCC(C(=O)N3CC(Oc5ccc([C@@H]6c7ccc(O)cc7CC[C@@H]6c6ccccc6)cc5)C3)CC2)C4)C(=O)N1` (stereo partly drawn) [Compound B120, 2-(2,6-dioxopiperidin-3-yl)-6-(2-(4-(3-(4-((1R,2S)-6-hydroxy-2-phenyl-1,2,3,4-tetrahydronaphthalen-1-yl)phenoxy)azetidine-1-carbonyl)piperidin-1-yl)-2-oxoethyl)-6,7-dihydropyrrolo[3,4-f]isoindole-1,3(2H,5H)-dione], above 100 nM.
The result for `O=C1CCC(N2C(=O)c3cc4c(cc3C2=O)CN(CC(=O)N2CCC3(CC2)CCN(c2ccc([C@@H]5c6ccc(-c7cn[nH]c7)cc6CC[C@@H]5c5ccccc5)cc2)CC3)C4)C(=O)N1` (stereo partly drawn) [Compound B324, 2-(2,6-dioxopiperidin-3-yl)-6-(2-oxo-2-(9-(4-((1R,2S)-2-phenyl-6-(1H-pyrazol-4-yl)-1,2,3,4-tetrahydronaphthalen-1-yl)phenyl)-3,9-diazaspiro[5.5]undecan-3-yl)ethyl)-6,7-dihydropyrrolo[3,4-f]isoindole-1,3(2H,5H)-dione] reads above 100 nM; that for `O=C1CCC(N2C(=O)c3cc4c(cc3C2=O)CN(Cc2cnc(N3CC(Oc5ccc([C@@H]6c7ccc(O)cc7CC[C@@H]6c6ccccc6)cc5)C3)cn2)C4)C(=O)N1` (stereo partly drawn) [Compound B104, 2-(2,6-dioxopiperidin-3-yl)-6-((5-(3-(4-((1R,2S)-6-hydroxy-2-phenyl-1,2,3,4-tetrahydronaphthalen-1-yl)phenoxy)azetidin-1-yl)pyrazin-2-yl)methyl)-6,7-dihydropyrrolo[3,4-f]isoindole-1,3(2H,5H)-dione], above 100 nM.
The result for `O=C1CCC(N2C(=O)c3cc4c(cc3C2=O)CN(C(=O)CN2CCC3(CC2)CCN(c2ccc([C@@H]5c6ccc(O)cc6CC[C@@H]5c5ccc(F)cc5)cc2)C3)C4)C(=O)N1` (mixture of isomers) [Compound B31, 2-(2,6-dioxopiperidin-3-yl)-6-(2-(2-(4-((1R,2S)-2-(4-fluorophenyl)-6-hydroxy-1,2,3,4-tetrahydronaphthalen-1-yl)phenyl)-2,8-diazaspiro[4.5]decan-8-yl)acetyl)-6,7-dihydropyrrolo[3,4-f]isoindole-1,3(2H,5H)-dione] reads above 100 nM.
With `O=C1CCC(N2C(=O)c3cc4c(cc3C2=O)CN(C2CCC(CN3CCN(c5ccc([C@@H]6c7ccc(O)cc7CC[C@@H]6c6ccccc6)cc5)CC3)CC2)C4)C(=O)N1` (stereo partly drawn) [Compound B76, 2-(2,6-dioxopiperidin-3-yl)-6-(4-((4-(4-((1R,2S)-6-hydroxy-2-phenyl-1,2,3,4-tetrahydronaphthalen-1-yl)phenyl)piperazin-1-yl)methyl)cyclohexyl)-6,7-dihydropyrrolo[3,4-f]isoindole-1,3(2H,5H)-dione], the DC50 was 10 to 100 nM.
Turning to `CN1C[C@@H]2CN(CC3CCN(c4ccc([C@@H]5c6ccc(O)cc6CC[C@@H]5c5ccccc5)cc4)CC3)CCN2c2cc3c(cc21)C(=O)N(C1CCC(=O)NC1=O)C3` (stereo partly drawn) [Compound B137, 3-((S)-3-((1-(4-((1R,2S)-6-hydroxy-2-phenyl-1,2,3,4-tetrahydronaphthalen-1-yl)phenyl)piperidin-4-yl)methyl)-6-methyl-8-oxo-2,3,4,4a,5,6,8,10-octahydropyrazino[1,2-a]pyrrolo[3,4-g]quinoxalin-9(1H)-yl)piperidine-2,6-dione], the half-maximal degradation concentration (DC50) fell in the range of 10 to 100 nM.
The result for `O=C1CCC(N2C(=O)c3cc4c(cc3C2=O)CN(C(=O)CN2CCC3(CC2)CCN(c2c(F)cc([C@@H]5c6ccc(O)cc6CC[C@@H]5c5ccccc5)cc2F)C3)C4)C(=O)N1` (mixture of isomers) [Compound B34, 6-(2-(2-(2,6-difluoro-4-((1R,2S)-6-hydroxy-2-phenyl-1,2,3,4-tetrahydronaphthalen-1-yl)phenyl)-2,8-diazaspiro[4.5]decan-8-yl)acetyl)-2-(2,6-dioxopiperidin-3-yl)-6,7-dihydropyrrolo[3,4-f]isoindole-1,3(2H,5H)-dione] reads above 100 nM; that for `O=C1CCC(N2C(=O)c3cc4c(cc3C2=O)CN(CC(=O)N2CCC3(CC2)CCN(c2ccc([C@H]5c6ccc(O)cc6CC[C@H]5c5ccccc5)nc2)CC3)C4)C(=O)N1` (mixture of isomers) [Compound B86, 2-(2,6-dioxopiperidin-3-yl)-6-(2-(9-(6-((1R,2R)-6-hydroxy-2-phenyl-1,2,3,4-tetrahydronaphthalen-1-yl)pyridin-3-yl)-3,9-diazaspiro[5.5]undecan-3-yl)-2-oxoethyl)-6,7-dihydropyrrolo[3,4-f]isoindole-1,3(2H,5H)-dione], above 100 nM.
As for `O=C1CCC(N2C(=O)c3cc4c(cc3C2=O)CN(CC(=O)N2CCC3(CCN(c5ccc([C@@H]6c7ccc(O)cc7CC[C@@H]6c6ccccc6)cc5)CC3)C2)C4)C(=O)N1` (mixture of isomers) [Compound B185, 2-(2,6-dioxopiperidin-3-yl)-6-(2-(8-(4-((1R,2S)-6-hydroxy-2-phenyl-1,2,3,4-tetrahydronaphthalen-1-yl)phenyl)-2,8-diazaspiro[4.5]decan-2-yl)-2-oxoethyl)-6,7-dihydropyrrolo[3,4-f]isoindole-1,3(2H,5H)-dione], the figure is 10 to 100 nM.
As for `O=C1CCC(N2C(=O)c3cc4c(cc3C2=O)CN(C(=O)CN2CC3(CCN(c5ccc([C@@H]6c7ccc(O)cc7CC[C@@H]6c6ccc(F)cc6)cc5)CC3)C2)C4)C(=O)N1` (mixture of isomers) [Compound B19, 2-(2,6-dioxopiperidin-3-yl)-6-(2-(7-(4-((1R,2S)-2-(4-fluorophenyl)-6-hydroxy-1,2,3,4-tetrahydronaphthalen-1-yl)phenyl)-2,7-diazaspiro[3.5]nonan-2-yl)acetyl)-6,7-dihydropyrrolo[3,4-f]isoindole-1,3(2H,5H)-dione], the figure is 10 to 100 nM.
Consider `O=C1CCC(N2Cc3cc4c(cc3C2=O)CN(CC2CN(CC3CCN(c5ccc([C@@H]6c7ccc(O)cc7CC[C@@H]6c6ccccc6)cc5)CC3)C2)C4=O)C(=O)N1` (stereo partly drawn) [Compound B301, 2-(2,6-dioxopiperidin-3-yl)-6-((1-((1-(4-((1R,2S)-6-hydroxy-2-phenyl-1,2,3,4-tetrahydronaphthalen-1-yl)phenyl)piperidin-4-yl)methyl)azetidin-3-yl)methyl)-2,3,6,7-tetrahydropyrrolo[3,4-f]isoindole-1,5-dione], for which the 50% degradation concentration (DC50) was above 100 nM.
The result for `O=C1CCC(N2C(=O)c3cc4c(cc3C2=O)CN(C(=O)c2ccc(CC(=O)N3CCCC(Oc5ccc([C@@H]6c7ccc(O)cc7CC[C@@H]6c6ccccc6)cc5)C3)cc2)C4)C(=O)N1` (stereo partly drawn) [Compound B16, 2-(2,6-dioxopiperidin-3-yl)-6-(4-(2-(3-(4-((1R,2S)-6-hydroxy-2-phenyl-1,2,3,4-tetrahydronaphthalen-1-yl)phenoxy)piperidin-1-yl)-2-oxoethyl)benzoyl)-6,7-dihydropyrrolo[3,4-f]isoindole-1,3(2H,5H)-dione] reads 10 to 100 nM; that for `O=C1CCC(N2C(=O)c3cc4c(cc3C2=O)CN(C[C@H]2CC[C@H](N3CC(Nc5ccc([C@@H]6c7ccc(O)cc7CC[C@@H]6c6ccccc6)cc5)C3)CC2)C4)C(=O)N1` (stereo partly drawn) [Compound B118, 2-(2,6-dioxopiperidin-3-yl)-6-(((1R,4r)-4-(3-((4-((1R,2S)-6-hydroxy-2-phenyl-1,2,3,4-tetrahydronaphthalen-1-yl)phenyl)amino)azetidin-1-yl)cyclohexyl)methyl)-6,7-dihydropyrrolo[3,4-f]isoindole-1,3(2H,5H)-dione], above 100 nM; that for `O=C1CCC(N2C(=O)c3cc4c(cc3C2=O)CN(C2CC3CCC(C2)N3CC2CCN(c3ccc([C@@H]5c6ccc(O)cc6CC[C@@H]5c5ccccc5)cc3)CC2)C4)C(=O)N1` (stereo partly drawn) [Compound B292, 2-(2,6-dioxopiperidin-3-yl)-6-(8-((1-(4-((1R,2S)-6-hydroxy-2-phenyl-1,2,3,4-tetrahydronaphthalen-1-yl)phenyl)piperidin-4-yl)methyl)-8-azabicyclo[3.2.1]octan-3-yl)-6,7-dihydropyrrolo[3,4-f]isoindole-1,3(2H,5H)-dione], above 100 nM.
The result for `O=C1CCC(N2Cc3cc4c(cc3C2=O)CN(C2CCN(CC3CN(c5ccc([C@@H]6c7ccc(O)cc7CC[C@@H]6c6ccc(F)cc6)cc5)C3)CC2)C4)C(=O)N1` (stereo partly drawn) [Compound B72, 3-(6-(1-((1-(4-((1R,2S)-2-(4-fluorophenyl)-6-hydroxy-1,2,3,4-tetrahydronaphthalen-1-yl)phenyl)azetidin-3-yl)methyl)piperidin-4-yl)-1-oxo-3,5,6,7-tetrahydropyrrolo[3,4-f]isoindol-2(1H)-yl)pipcridinc-2,6-dionc] reads 10 to 100 nM.

One may read the DC50 as the midpoint of the concentration-degradation curve.
